Results published in US7563899B2, “(S)-N-methylnaltrexone” (Progenics Pharmaceuticals, Inc., priority 2005, dated 2009).
Where a name gives a salt, the structure may show the parent alone.

How the values were obtained:
[1] = target: human recombinant mu opioid receptors (Homo sapiens, UniProt P35372); assay: Radioligand binding assay, mu opioid receptor
Description: (§1) Radioligand binding assays were conducted to determine the binding specificity of S-N-methynaltrexone for μ-, κ-, and δ-opiate receptors using methods adapted from scientific literature (Simonin, F et al 1994, Mol. Pharmacol 46:1015-1021; Maguire, P. et al 1992, Eur. J. Pharmacol. 213:219-225; Simonin, F. et al PNAS USA 92(15):1431-1437; Wang, J B 1994, FEBS Lett 338:217-222).

[2] = target: human recombinant kappa opioid receptors (Homo sapiens, UniProt P41145); assay: Radioligand binding assay, kappa opioid receptor
Chain of human recombinant kappa opioid receptors (P41145 whole entry): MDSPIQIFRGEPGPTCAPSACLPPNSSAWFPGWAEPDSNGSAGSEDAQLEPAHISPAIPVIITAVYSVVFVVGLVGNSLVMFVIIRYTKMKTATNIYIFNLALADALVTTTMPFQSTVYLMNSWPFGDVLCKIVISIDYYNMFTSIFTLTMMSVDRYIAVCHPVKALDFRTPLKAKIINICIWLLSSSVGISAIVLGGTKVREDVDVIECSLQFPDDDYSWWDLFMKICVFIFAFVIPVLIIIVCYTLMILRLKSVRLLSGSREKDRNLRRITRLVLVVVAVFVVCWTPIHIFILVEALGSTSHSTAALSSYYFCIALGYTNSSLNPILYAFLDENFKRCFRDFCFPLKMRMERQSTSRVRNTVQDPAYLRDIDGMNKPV
Description: as §1

[3] = target: T1, μ-opioid receptors in the guinea pig ileum (Cavia porcellus, UniProt A0ACM8Q262); assay: Guinea pig ileum bioassay, test for agonist activity (inhibition of electrically evoked twitch contractions); conditions: for Response to the compound (decrease in twitch contraction amplitude): percent of control response to DAMGO 1.0E−07 M
T1 sequence (A0ACM8Q262 1-400): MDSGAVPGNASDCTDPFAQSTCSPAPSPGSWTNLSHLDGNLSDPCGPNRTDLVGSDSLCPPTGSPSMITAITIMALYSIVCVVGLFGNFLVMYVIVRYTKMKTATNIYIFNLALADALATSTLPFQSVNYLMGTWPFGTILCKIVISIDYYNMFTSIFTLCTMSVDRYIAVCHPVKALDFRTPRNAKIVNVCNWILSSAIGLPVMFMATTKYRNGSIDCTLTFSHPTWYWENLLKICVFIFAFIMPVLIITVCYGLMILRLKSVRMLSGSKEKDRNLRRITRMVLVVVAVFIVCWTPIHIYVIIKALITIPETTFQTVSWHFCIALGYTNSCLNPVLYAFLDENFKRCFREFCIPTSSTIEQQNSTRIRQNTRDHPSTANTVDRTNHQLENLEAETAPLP
Description: (§2) Experimental Conditions. Segments of guinea pig terminal ileum were suspended in 20-ml organ baths filled with an oxygenated (95% O2 and 5% CO2) and pre-warmed (37° C.) physiological salt solution of the following composition (in mM): NaCl 118.0, KCl 4.7, MgSO4 1.2, CaCl2 2.5, KH2PO4 1.2, NaHCO3 25.0 and glucose 11.0 (pH 7.4). Additional experimental conditions were as described in Hutchinson et al. (1975) Brit. J. Pharmacol., 55: 541-546.
(§3) Indomethacin (1 μM), nor-binaltorphimine (0.01 μM), methysergide (1 μM), ondansetron (10 μM) and GR113808 (0.1 μM) were also present throughout the experiments to prevent prostanoid release and to block the k-opioid, 5-HT2, 5-HT3 and 5-HT4 receptors, respectively. The tissues were connected to force transducers for isometric tension recordings. They were stretched to a resting tension of 1 g then allowed to equilibrate for 60 min during which time they were washed repeatedly and the tension readjusted. Thereafter, they were stimulated electrically with pulses of minimal intensity to trigger maximal contractions and 1 ms duration, delivered at 0.1 Hz by a constant current stimulator.
Test for agonist activity. […] The different concentrations were added cumulatively and each was left in contact with the tissues until a stable response was obtained or for a maximum of 15 min.
(§4) Analysis and Expression of Results. The parameter measured was the maximum change in the amplitude of the electrically-evoked twitch contractions induced by each compound concentration.

[4] = target: T1, μ-opioid receptors in the guinea pig ileum; assay: Guinea pig ileum bioassay, test for antagonist activity (against DAMGO-induced response); conditions: for Response to DAMGO (1.0E−07 M) in the presence of the compound: percent of control response to DAMGO, mean, n=2
Description: as §2, §3
Test for antagonist activity. […] Each concentration was left in contact with the tissues until a stable response was obtained or for a maximum of 15 min.
as §4

[5] = test system: gastrointestinal transit in rats; assay: Gastrointestinal transit (charcoal motility) in rats, alone or before morphine; assay type: in vivo, rat; conditions: for Mean Motility: ratio of length of charcoal transit/total intestine length, * p<0.05 vs vehicle
Description: F. et al J. Pharmacol. Exptl. Therap. 133: 400-408, 1961; D. E. Gmerek, et al J. Pharmacol. Exptl. Ther. 236: 8-13, 1986; and O. Yamamoto et al Neurogastroenterol. Motil. 10: 523-532, 1998.
A control group of rats received 2 mL/kg of a 0.9% saline solution (n=10). After 15 minutes, rats were subcutaneously injected with saline (1 mL/kg) or morphine (3 mg/kg). A 10% suspension of activated charcoal in 0.25% methylcellulose was administered orally at 10 mL/kg to the rats 20 minutes (±2 minutes) after the subcutaneous dose of morphine or saline. The rats were euthanized 25 minutes (±3 minutes) after receiving the charcoal and the intestines were removed and lightly stretched on moist paper along a meterstick. The small intestine from pyloric sphincter to caecum was measured and the distance traveled by the charcoal as a fraction of that length was evaluated for each rat.
Statistically significant effects were determined by ANOVA with Tukey HSD Multiple Comparison Test. Differences with p values <0.05 were considered statistically significant.
Values for charcoal motility were expressed as a percent effect and were calculated in the following manner: The individual distance traveled by the charcoal in centimeters was divided by the total length of the intestines in centimeters (pyloric sphincter to caecum) for each rat. Mean values were calculated for each group, and the percent effect was calculated using the following formula: […]

[6] = target: T2, human μ (mu, MOP) receptor (Homo sapiens, UniProt P35372); assay: cAMP assay in CHO cells expressing human mu receptor, antagonist assay; assay type: cell-based; conditions: for cAMP antagonist assay value (Table IX.2): then 30 μM DAMGO, then forskolin
T2 construct: expressed in transfected cells; host or cells: CHO cells
T2 sequence (P35372 whole entry): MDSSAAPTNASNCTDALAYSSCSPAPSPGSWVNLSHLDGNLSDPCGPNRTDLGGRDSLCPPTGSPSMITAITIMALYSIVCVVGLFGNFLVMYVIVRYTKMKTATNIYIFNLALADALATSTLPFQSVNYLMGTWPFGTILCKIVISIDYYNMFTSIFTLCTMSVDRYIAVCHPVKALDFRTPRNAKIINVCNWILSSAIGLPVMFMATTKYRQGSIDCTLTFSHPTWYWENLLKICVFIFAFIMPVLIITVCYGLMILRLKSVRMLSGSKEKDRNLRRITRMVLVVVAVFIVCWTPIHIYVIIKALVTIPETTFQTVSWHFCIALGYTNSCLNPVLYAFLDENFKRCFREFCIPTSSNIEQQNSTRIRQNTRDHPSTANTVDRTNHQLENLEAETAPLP
Description: Thus full antagonist effect was equivalent to forskolin without any addition of μ-opioid agonist.
Cells were grown to confluence in 96-well plates. Cells were washed and equilibrated in physiological buffer before analysis. 20 ul of drug, 100 uM IBMX and 10 uM forskolin were added and incubated for 25 minutes at room temperature and then the reaction was stopped with the addition of 0.1 N HCl. Extracted cAMP level was determined via competitive EIA assay utilizing alkaline phosphatase. Additional experimental conditions were as described in Toll L., J Pharmacol Exp Ther. (1995) 273(2): 721-7.

[7] = 1 mg/kg sc + Morphine 3 mg/kg sc
[8] = 3 mg/kg sc + Morphine 3 mg/kg sc
[9] = 10 mg/kg sc + Morphine 3 mg/kg sc

Chain of human recombinant mu opioid receptors (P35372 whole entry): as above

C[N@@+]1(CC2CC2)CC[C@]23c4c5ccc(O)c4OC2C(=O)CCC3(O)C1C5 (stereo partly drawn) [S-MNTX, (S)-N-(cyclopropylmethyl)-noroxymorphone methyl salt]
Ki [1]: 0.198 µM | Ki [2]: 1.76 µM | Response to the compound (decrease in twitch contraction amplitude) ([3]; 1.0E−04 M, mean, n=2): 109% | Response to the compound (decrease in twitch contraction amplitude) ([3]; 1.0E−05 M, mean, n=2): 92% | Response to the compound (decrease in twitch contraction amplitude) ([3]; 1.0E−06 M, mean, n=2): 35% | Response to the compound (decrease in twitch contraction amplitude) ([3]; 1.0E−07 M, mean, n=2): 5% | Response to the compound (decrease in twitch contraction amplitude) ([3]; 1.0E−08 M, mean, n=2): 0% | Response to the compound (decrease in twitch contraction amplitude) ([3]; 3.0E−05 M, mean, n=2): 109% | Response to the compound (decrease in twitch contraction amplitude) ([3]; 3.0E−06 M, mean, n=2): 59% | Response to the compound (decrease in twitch contraction amplitude) ([3]; 3.0E−07 M, mean, n=2): 16% | Response to the compound (decrease in twitch contraction amplitude) ([3]; 3.0E−08 M, mean, n=2): 0% | Response to the compound +naloxone ([3]; compound 1.0E−04 M + naloxone 1.0E−07 M, percent of control response to DAMGO, mean, n=2): 17% | behaviour at the μ-opioid receptors in this tissue ([3]; field-stimulated guinea pig ileum): behaves as an agonist | EC50 ([3]; guinea pig ileum, linear regression of concentration-response curve): 2 µM | Response to DAMGO (1.0E−07 M) in the presence of the compound ([4]; compound 1.0E−04 M): 110% | Response to DAMGO (1.0E−07 M) in the presence of the compound ([4]; compound 1.0E−05 M): 105% | Response to DAMGO (1.0E−07 M) in the presence of the compound ([4]; compound 1.0E−06 M): 100% | Response to DAMGO (1.0E−07 M) in the presence of the compound ([4]; compound 1.0E−07 M): 100% | Response to DAMGO (1.0E−07 M) in the presence of the compound ([4]; compound 1.0E−08 M): 100% | Response to DAMGO (1.0E−07 M) in the presence of the compound ([4]; compound 3.0E−05 M): 109% | Response to DAMGO (1.0E−07 M) in the presence of the compound ([4]; compound 3.0E−06 M): 102% | Response to DAMGO (1.0E−07 M) in the presence of the compound ([4]; compound 3.0E−07 M): 100% | Response to DAMGO (1.0E−07 M) in the presence of the compound ([4]; compound 3.0E−08 M): 100% | Antagonist activity IC50 value ([4]; guinea pig ileum, against DAMGO 1.0E−07 M): No antagonist activity | Percent Decrease [5, 7]: 54% | Mean Motility [5, 7]: 0.281* | Percent Decrease [5, 8]: 57% | Mean Motility [5, 8]: 0.258* | Percent Decrease [5, 9]: 80% | Mean Motility [5, 9]: 0.122* | Percent Decrease ([5]; 10 mg/kg sc + Saline): 21% | Mean Motility ([5]; 10 mg/kg sc + Saline): 0.476* | effect on GI transit in combination with / prior to morphine ([5]; rats, sc, 15 minutes before morphine 3 mg/kg): dramatic synergistic agonist effect in decreasing GI motility | effect on GI transit when administered alone ([5]; rats, sc, alone): decreased GI motility | antagonist effect in cAMP assay ([6]; cAMP antagonist assay): no antagonist effect | cAMP antagonist assay value (Table IX.2) ([6]; log{M} conc −4.0): −13 | cAMP antagonist assay value (Table IX.2) ([6]; log{M} conc −4.5): −13 | cAMP antagonist assay value (Table IX.2) ([6]; log{M} conc −5.0): −9 | cAMP antagonist assay value (Table IX.2) ([6]; log{M} conc −5.5): −8 | cAMP antagonist assay value (Table IX.2) ([6]; log{M} conc −6.0): −1 | cAMP antagonist assay value (Table IX.2) ([6]; log{M} conc −6.5): 9 | cAMP antagonist assay value (Table IX.2) ([6]; log{M} conc −7.0): 5 | cAMP antagonist assay value (Table IX.2) ([6]; log{M} conc −7.5): 6 | cAMP antagonist assay value (Table IX.2) ([6]; log{M} conc −8.0): 4 | cAMP antagonist assay value (Table IX.2) ([6]; log{M} conc −9.0): 0
